Assay [1] concerns the target T1, Amyloid-beta precursor protein (Homo sapiens, UniProt P05067). Put plainly: Binding affinity to amyloid beta (1 to 42) (unknown origin) assessed as dissociation constant by SPR analysis.
In assay [2] the target is T1, Amyloid-beta precursor protein. Put plainly: Binding affinity to amyloid beta (1 to 42) (unknown origin) assessed as binding constant K(on) by SPR analysis. Background: In SPR one partner is held on a chip, and binding of the other changes the refractive index at the surface.
Assay [3] shares this target. Put plainly: Binding affinity to amyloid beta (1 to 42) (unknown origin) assessed as binding constant K(off) by SPR analysis.
The subject of assay [4] is MDA-MB-468. Put plainly: Protection against amyloid beta-induced cytotoxicity in human MDA-MB-468 cells at 0.5 uM by MTT assay. Format: functional, cell-based. Background: Tetrazolium dyes change colour on reduction, which living cells bring about.
The test system of assay [5] is MDA-MB-468. Put plainly: Induction of amyloid beta (1 to 42) degradation in lysosome of human MDA-MB-468 cells assessed as decrease in fluorescence signal at 1 uM incubated for 48 to 72 hrs by FITC based flow cytometry analysis. Conditions: time 48-72 hrs. The class given is subcellular. On the technique in general: Flow cytometry measures light scatter and fluorescence of single cells or particles in a stream.

SMILES strings stand for the structures. pKd: −log10 of the molar value. Active and inactive are the calls of the source. No cut-off for these calls is given here.

T1 sequence (P05067 whole entry): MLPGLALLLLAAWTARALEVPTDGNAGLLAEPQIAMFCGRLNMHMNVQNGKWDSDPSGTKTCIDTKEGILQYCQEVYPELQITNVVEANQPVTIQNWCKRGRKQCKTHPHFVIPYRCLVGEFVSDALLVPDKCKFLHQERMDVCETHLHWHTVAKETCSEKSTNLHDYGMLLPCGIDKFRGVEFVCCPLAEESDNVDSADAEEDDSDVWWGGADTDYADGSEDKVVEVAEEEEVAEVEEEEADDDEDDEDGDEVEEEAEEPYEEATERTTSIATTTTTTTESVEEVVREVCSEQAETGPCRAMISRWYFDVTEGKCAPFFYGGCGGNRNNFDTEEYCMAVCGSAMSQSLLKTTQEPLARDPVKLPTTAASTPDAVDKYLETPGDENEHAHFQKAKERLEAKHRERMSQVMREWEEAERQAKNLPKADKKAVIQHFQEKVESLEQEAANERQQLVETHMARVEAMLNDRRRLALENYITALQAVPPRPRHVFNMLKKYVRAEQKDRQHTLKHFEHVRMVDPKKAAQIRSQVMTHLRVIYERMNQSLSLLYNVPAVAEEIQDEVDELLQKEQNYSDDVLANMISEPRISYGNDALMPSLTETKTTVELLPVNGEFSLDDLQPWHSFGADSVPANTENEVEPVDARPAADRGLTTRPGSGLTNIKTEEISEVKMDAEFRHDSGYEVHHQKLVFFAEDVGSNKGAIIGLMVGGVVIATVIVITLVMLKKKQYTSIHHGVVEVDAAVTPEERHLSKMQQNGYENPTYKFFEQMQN

As for `NCCCO[C@@H]1O[C@@H](C(=O)O)[C@@H](O[C@H]2O[C@H](COS(=O)(=O)O)[C@@H](O[C@@H]3O[C@@H](C(=O)O)[C@@H](O[C@H]4O[C@H](COS(=O)(=O)O)[C@@H](O[C@@H]5O[C@@H](C(=O)O)[C@@H](O[C@H]6O[C@H](COS(=O)(=O)O)[C@@H](O)[C@H](O)[C@H]6NS(=O)(=O)O)[C@H](O)[C@H]5OS(=O)(=O)O)[C@H](O)[C@H]4NS(=O)(=O)O)[C@H](O)[C@H]3OS(=O)(=O)O)[C@H](O)[C@H]2NS(=O)(=O)O)[C@H](O)[C@H]1OS(=O)(=O)O`, the pKd in assay [1] was 7.04. Besides, the K in assay [2] was 2.47 10^5/Ms; in assay [3], 2.23 10^-2/s.
On the same counts, the results for `NCCOCCO[C@@H]1O[C@@H](COS(=O)(=O)O)[C@@H](O[C@@H]2O[C@@H](COS(=O)(=O)O)[C@@H](O[C@@H]3O[C@@H](COS(=O)(=O)O)[C@@H](O[C@@H]4O[C@@H](COS(=O)(=O)O)[C@@H](OS(=O)(=O)O)[C@H](O)[C@H]4OS(=O)(=O)O)[C@H](O)[C@H]3OS(=O)(=O)O)[C@H](O)[C@H]2OS(=O)(=O)O)[C@H](O)[C@H]1OS(=O)(=O)O` are 7.04, 2.45 10^5/Ms and 2.21 10^-2/s.
On to `CC(C)CCC[C@@H](C)[C@H]1CC[C@H]2[C@@H]3CC=C4C[C@@H](OCCC(=O)NCCOCCOCCNC(=O)CCC(=O)N5Cc6ccccc6-c6c(nnn6CCC[C@H](NC(=O)[C@H](CCCCNC(=O)CCn6nnc7c6-c6ccccc6CN(C(=O)CCC(=O)NCCCO[C@@H]6O[C@@H](C(=O)O)[C@@H](O[C@H]8O[C@H](COS(=O)(=O)O)[C@@H](O[C@@H]9O[C@@H](C(=O)O)[C@@H](O[C@H]%10O[C@H](COS(=O)(=O)O)[C@@H](O[C@@H]%11O[C@@H](C(=O)O)[C@@H](O[C@H]%12O[C@H](COS(=O)(=O)O)[C@@H](O)[C@H](O)[C@H]%12NS(=O)(=O)O)[C@H](O)[C@H]%11OS(=O)(=O)O)[C@H](O)[C@H]%10NS(=O)(=O)O)[C@H](O)[C@H]9OS(=O)(=O)O)[C@H](O)[C@H]8NS(=O)(=O)O)[C@H](O)[C@H]6OS(=O)(=O)O)c6ccccc6-7)NC(=O)[C@H](CCCCNC(=O)CCn6nnc7c6-c6ccccc6CN(C(=O)CCC(=O)NCCCO[C@@H]6O[C@@H](C(=O)O)[C@@H](O[C@H]8O[C@H](COS(=O)(=O)O)[C@@H](O[C@@H]9O[C@@H](C(=O)O)[C@@H](O[C@H]%10O[C@H](COS(=O)(=O)O)[C@@H](O[C@@H]%11O[C@@H](C(=O)O)[C@@H](O[C@H]%12O[C@H](COS(=O)(=O)O)[C@@H](O)[C@H](O)[C@H]%12NS(=O)(=O)O)[C@H](O)[C@H]%11OS(=O)(=O)O)[C@H](O)[C@H]%10NS(=O)(=O)O)[C@H](O)[C@H]9OS(=O)(=O)O)[C@H](O)[C@H]8NS(=O)(=O)O)[C@H](O)[C@H]6OS(=O)(=O)O)c6ccccc6-7)NC(=O)[C@H](CCCCNC(=O)CCn6nnc7c6-c6ccccc6CN(C(=O)CCC(=O)NCCCO[C@@H]6O[C@@H](C(=O)O)[C@@H](O[C@H]8O[C@H](COS(=O)(=O)O)[C@@H](O[C@@H]9O[C@@H](C(=O)O)[C@@H](O[C@H]%10O[C@H](COS(=O)(=O)O)[C@@H](O[C@@H]%11O[C@@H](C(=O)O)[C@@H](O[C@H]%12O[C@H](COS(=O)(=O)O)[C@@H](O)[C@H](O)[C@H]%12NS(=O)(=O)O)[C@H](O)[C@H]%11OS(=O)(=O)O)[C@H](O)[C@H]%10NS(=O)(=O)O)[C@H](O)[C@H]9OS(=O)(=O)O)[C@H](O)[C@H]8NS(=O)(=O)O)[C@H](O)[C@H]6OS(=O)(=O)O)c6ccccc6-7)NC(=O)[C@H](CCCCNC(=O)CCn6nnc7c6-c6ccccc6CN(C(=O)CCC(=O)NCCCO[C@@H]6O[C@@H](C(=O)O)[C@@H](O[C@H]8O[C@H](COS(=O)(=O)O)[C@@H](O[C@@H]9O[C@@H](C(=O)O)[C@@H](O[C@H]%10O[C@H](COS(=O)(=O)O)[C@@H](O[C@@H]%11O[C@@H](C(=O)O)[C@@H](O[C@H]%12O[C@H](COS(=O)(=O)O)[C@@H](O)[C@H](O)[C@H]%12NS(=O)(=O)O)[C@H](O)[C@H]%11OS(=O)(=O)O)[C@H](O)[C@H]%10NS(=O)(=O)O)[C@H](O)[C@H]9OS(=O)(=O)O)[C@H](O)[C@H]8NS(=O)(=O)O)[C@H](O)[C@H]6OS(=O)(=O)O)c6ccccc6-7)NC(=O)[C@H](CCCCNC(=O)CCn6nnc7c6-c6ccccc6CN(C(=O)CCC(=O)NCCCO[C@@H]6O[C@@H](C(=O)O)[C@@H](O[C@H]8O[C@H](COS(=O)(=O)O)[C@@H](O[C@@H]9O[C@@H](C(=O)O)[C@@H](O[C@H]%10O[C@H](COS(=O)(=O)O)[C@@H](O[C@@H]%11O[C@@H](C(=O)O)[C@@H](O[C@H]%12O[C@H](COS(=O)(=O)O)[C@@H](O)[C@H](O)[C@H]%12NS(=O)(=O)O)[C@H](O)[C@H]%11OS(=O)(=O)O)[C@H](O)[C@H]%10NS(=O)(=O)O)[C@H](O)[C@H]9OS(=O)(=O)O)[C@H](O)[C@H]8NS(=O)(=O)O)[C@H](O)[C@H]6OS(=O)(=O)O)c6ccccc6-7)NC(=O)[C@H](C)NC(=O)CCCCC[N+]6=C(/C=C/C=C/C=C7\N(C)c8ccccc8C7(C)C)C(C)(C)c7ccccc76)C(N)=O)-c6ccccc65)CC[C@]4(C)[C@H]3CC[C@]12C`, for which the outcome in the assay on MDA-MB-468 [4] and in the assay on MDA-MB-468 [5] was Active.

What is called pKd is the negative decadic logarithm of the Kd, by convention in mol/L.
